Series [1] concerns Escherichia coli ATCC 25922. The series is described as follows: microbe, parasite or virus in culture. It is filed as cell-based. To be noted: Table 4; two tests, first/second value where not identical. The protocol:
(§1) Bacteria (Escherichia coli ATCC 25922, Pseudomonas aeruginosa ATCC 27853, Staphylococcus aureus ATCC29213, Klebsiella pneumoniae JCM 1662, Enterobacter cloacae JCM 1232, Enterobacter aerogenes JCM 1235 and Staphylococcus epidermidis JCM 2414) were inoculated to Mueller-Hinton broth: MHB or LB medium, and cultured at a temperature and period suited for each strain. From the thus obtained colonies, each strain was inoculated to a fresh liquid medium and cultured for 16 to 20 hours. Then an aliquot having a volume (10 to 50 appropriate to each strain was inoculated to a fresh liquid medium and cultured for 4 to 6 hours, followed by the measurement of the absorbance at 600 nm. After comparing the turbidity with McFarland #0.5, the resultant was diluted with a medium. Each strain was added to about 10^5 CFU/mL (final concentration). Each of the peptide solutions to be tested was diluted with MHB to obtain a solution of 128 μg/mL. […] As controls, tobramycin (TOB: aminoglucoside antibiotic), oxacillin (OX:β-lactam antibiotic), meropenem (MEPM: carbapenem antibiotic) and ciprofloxacin (new quinolone antibiotic) were used. […] To a 96-well microtiter plate, 0.1 mL of the inoculation solution and 0.1 mL of the peptide- or positive control-containing medium having the respective concentration were added, and cultured at 37° C. for 16 to 24 hours (or a time period suited for the growth of the respective strain). The well not containing the sample was used as a negative control. After the culturing, the growth was visually observed, and the minimum concentration at which the growth was inhibited was defined as the minimum growth inhibition concentration (MIC). The medium used in this test for bacteria was Mueller-Hinton broth. Independent experiments were carried out twice or more for each strain.

In series [2] the test system is Pseudomonas aeruginosa ATCC 27853. The series is described as follows: microbe, parasite or virus in culture. In kind it is cell-based. The procedure: as §1
In series [3] the test system is Staphylococcus aureus ATCC29213. The series is described as follows: microbe, parasite or virus in culture. In kind it is cell-based. The procedure: as §1
Series [4] relates to Staphylococcus epidermidis JCM 2414. The series is described as follows: microbe, parasite or virus in culture. It is filed as cell-based. The following applies: JCM 2414. The protocol:
as §1

In series [5] the test system is Escherichia coli ATCC 25922. The series is described as follows: ATP Assay (viability at 3 hours), Table 6. The following applies: 3 h, 5 μg/mL. It is filed as cell-based. The procedure:
(§2) Bacteria (Escherichia coli ATCC 25922, Pseudomonas aeruginosa ATCC 27853, Staphylococcus aureus ATCC29213, and Staphylococcus epidermidis JCM 2414) were inoculated to Mueller-Hinton broth: MHB or LB medium, and cultured at a temperature and period suited for each strain. From the thus obtained colonies, each strain was inoculated to a fresh liquid medium and cultured for 16 to 20 hours. Then an aliquot having a volume (10 to 50 μL) appropriate to each strain was inoculated to a fresh liquid medium and cultured for 4 to 6 hours, followed by the measurement of the absorbance at 600 nm. After comparing the turbidity with McFarland #0.5, the resultant was diluted with a medium. Each strain was added to about 10^5 CFU/mL (final concentration).
(§3) Each of the peptide solutions to be tested was diluted with the medium to obtain a solution of 10 μg/mL. As positive controls, tobramycin (TOB), oxacillin (OX) and meropenem (MEPM) were used. By dilution with sterilized purified water to 1.0 mg/mL, positive control-containing media having concentrations of […], respectively for TOB; 0.5, 0.12 and 0.06 μg/mL, respectively, for OX; and 1.0, 0.25, 0.12, 0.06, 0.03 and 0.008 μg/mL respectively, for MEPM, were prepared. To a 96-well microtiter plate, 0.1 mL of the inoculation solution and 0.1 mL of the peptide- or positive control-containing medium having the respective concentration were added, and cultured at 37° C. for 3 hours. The well not containing the sample was used as a negative control. After the culturing, ATP was measured using BacTiter-Glo Microbial Cell Viability Assay kit of PROMEGA, and compared with that in the negative control to obtain a relative value which was defined as a viability. The antibacterial activity was evaluated based on the viability at 3 hours later using ATP as an index.
(§4) The medium used in this test for bacteria was Mueller-Hinton broth. Independent experiments were carried out twice for each strain.

Series [6] concerns Pseudomonas aeruginosa ATCC 27853. The series is described as follows: ATP Assay (viability at 3 hours), Table 6. It is filed as cell-based. To be noted: 3 h, 5 μg/mL. The protocol:
as §2, §3, §4

Series [7] concerns Staphylococcus aureus ATCC29213. The series is described as follows: ATP Assay (viability at 3 hours), Table 6. In kind it is cell-based. To be noted: 3 h, 5 μg/mL. The protocol:
as §2, §3, §4

The test system of series [8] is Micrococcus luteus NBRC13867.
In series [9] the test system is Bacillus subtilis NBRC3134. The following applies: NBRC3134.
The test system of series [10] is Salmonella enteritidis IID 604. To be noted: IID 604.
Series [11] concerns Salmonella typhimurium JCM1652.
In series [12] the test system is Streptococcus pyogenes JCM5674.
The subject of series [13] is Acinetobacter baumanni JCM6841. The following applies: JCM6841.
Series [14] deals with Bacteroides fragilis JCM 11019.
Series [15] has as its system Fusobacterium nucleatum JCM 11025.
The subject of series [16] is Actinobacillus actinomycetemcomitans JCM2434.
For a further series, the system named is Fusarium solani JCM11383. The following applies: JCM11383.
Series [17] has as its system Alternaria alternata JCM5800.
Series [18] concerns Trichophyton mentagrophytes NBRC6124. The following applies: NBRC6124.
Series [19] relates to Trichophyton rubrum NBRC9185. To be noted: NBRC9185.
[20] abbreviates: Table 4, two tests, first/second value where not identical.

Read-outs that look alike come from different tables or passages of the source. No end group written: not given here.

As to GRLKRMGERLKRKIQKLIRL-NH2 [SRP-21], the “MIC Escherichia coli” value in series [1] was 16/32. This substance also yielded an MIC Pseudomonas aeruginosa in [2] (ATCC 27853) of 8 µg/mL. Also, the “MIC Staphylococcus aureus” value in series [3] (setting [20]) is on record as 8/32. Moreover, the “MIC Staphylococcus epidermidis” value in [4] lay within 8000 to 16000 µg/mL. Also, the “Escherichia coli ATP (viability, relative value to negative control)” value in series [5] is reported as 3.7. Moreover, the “Pseudomonas aeruginosa ATP (viability, relative value to negative control)” value in series [6] was 3.8. Moreover, the “Staphylococcus aureus ATP (viability, relative value to negative control)” value in series [7] is 1.8. The MIC Micrococcus luteus in series [8] turned out to be 1 µg/mL. In series [9], this substance returned an MIC Bacillus subtilis of 2 µg/mL. The substance also came in with an MIC Salmonella Enteritidis in [10] of 2 µg/mL. The same substance returned an MIC Salmonella Typhimurium in series [11] (JCM1652) of 2 µg/mL. In addition, in series [12], the MIC Streptococcus pyogenes amounted to 8 µg/mL. In series [13], this substance returned an MIC Acinetobacter baumanni of 32 µg/mL. Also, the MIC Bacteroides fragilis in [14] (JCM 11019) was found to be 16 µg/mL. For the same substance, the MIC Fusobacterium nucleatum in series [15] (JCM 11025) turned out to be 4 µg/mL. This substance also had an MIC Actinobacillus actinomycetemcomitans in [16] of 32 µg/mL. The substance further displayed an MIC Fusarium solani against Fusarium solani JCM11383 of 16 µg/mL. The substance also returned an MIC Alternaria alternata in [17] (JCM5800) of 64 µg/mL. In series [18], this substance returned an MIC Trichophyton mentagrophytes of 64 µg/mL. Also, in series [19], the MIC Trichophyton rubrum came out at 128 µg/mL. The same substance had an MIC Candida krusei in the series on Candida krusei NBRC1395 (NBRC1395) of 32 µg/mL.
As to Ac-KLIFLRELRRLRKRLKRKLR-NH2 [SRP-20], in series [1], the “MIC Escherichia coli” value is 8/16. Further, in series [2] (setting [20]), the “MIC Pseudomonas aeruginosa” value is recorded as 8/16. In [3] (ATCC29213), this substance returned an MIC Staphylococcus aureus of 16 µg/mL. In series [4], the “MIC Staphylococcus epidermidis” value was 8000 to 16000 µg/mL. Moreover, the “Escherichia coli ATP (viability, relative value to negative control)” value in [5] turned out to be 6.2. For the same substance, the “Pseudomonas aeruginosa ATP (viability, relative value to negative control)” value in [6] came to 1.1. Besides, in series [7], the “Staphylococcus aureus ATP (viability, relative value to negative control)” value amounted to 3.2. Moreover, the MIC Micrococcus luteus in series [8] was 2 µg/mL. The substance also gave an MIC Bacillus subtilis in series [9] of 2 µg/mL. In series [10], the MIC Salmonella Enteritidis came to 4 µg/mL. In [11] (JCM1652), this substance returned an MIC Salmonella Typhimurium of 4 µg/mL. The MIC Streptococcus pyogenes in series [12] was 32 µg/mL. The substance further had an MIC Acinetobacter baumanni in series [13] of 16 µg/mL. Also, the “MIC Bacteroides fragilis” value in series [14] (setting [20]) is 8/16. This substance also showed an MIC Fusobacterium nucleatum in [15] (JCM 11025) of 4 µg/mL. The substance also had an MIC Actinobacillus actinomycetemcomitans in series [16] of 128 µg/mL. In addition, the MIC Fusarium solani in the series with Fusarium solani JCM11383 was found to be 4 µg/mL. Moreover, in [17] (setting [20]), the “MIC Alternaria alternata” value is 32/64. The substance also came in with an MIC Trichophyton mentagrophytes in series [18] of 16 µg/mL. In series [19], this substance had an MIC Trichophyton rubrum of 32 µg/mL. Moreover, in the series with Candida krusei NBRC1395 (NBRC1395), the MIC Candida krusei is 16 µg/mL.
For the substance Ac-GRLKRMGERLKRKIQKWIRW-NH2 [SRP-19], in [1], the “MIC Escherichia coli” value is listed as 8/16. The same substance gave an MIC Pseudomonas aeruginosa in [2] (ATCC 27853) of 8 µg/mL. This substance also returned an MIC Staphylococcus aureus in series [3] (ATCC29213) of 8 µg/mL. This substance yielded an MIC Staphylococcus epidermidis in series [4] of 8 µg/mL. In series [5], the “Escherichia coli ATP (viability, relative value to negative control)” value was found to be 2.9. Moreover, the “Pseudomonas aeruginosa ATP (viability, relative value to negative control)” value in [6] was 1.6. The “Staphylococcus aureus ATP (viability, relative value to negative control)” value in series [7] is given as 2.1. The substance further returned an MIC Micrococcus luteus in [8] of 2 µg/mL. Moreover, the MIC Bacillus subtilis in series [9] was found to be 2 µg/mL. For the same substance, the MIC Salmonella Enteritidis in series [10] came to 4 µg/mL. In series [11] (JCM1652), this substance had an MIC Salmonella Typhimurium of 4 µg/mL. This substance also showed an MIC Streptococcus pyogenes in series [12] of 16 µg/mL. Further, in series [13], the MIC Acinetobacter baumanni turned out to be 32 µg/mL. The “MIC Bacteroides fragilis” value in series [14] (setting [20]) is on record as 16/8. The substance also gave an MIC Fusobacterium nucleatum in series [15] (JCM 11025) of 4 µg/mL. Moreover, in [16], the MIC Actinobacillus actinomycetemcomitans stood at 64 µg/mL. For the same substance, the MIC Fusarium solani with Fusarium solani JCM11383 stood at 16 µg/mL. The same substance showed an MIC Alternaria alternata in series [17] (JCM5800) of 64 µg/mL. Further, the MIC Trichophyton mentagrophytes in series [18] was 32 µg/mL. Further, in series [19], the MIC Trichophyton rubrum was determined as 64 µg/mL. In addition, in the series with Candida krusei NBRC1395 (NBRC1395), the MIC Candida krusei came out at 16 µg/mL.
As to Ac-GRLKRMGKRLKRKIQKWARW-NH2 [SRP-18], the “MIC Escherichia coli” value in series [1] was 8/16. For the same substance, in series [2] (setting [20]), the “MIC Pseudomonas aeruginosa” value is recorded as 4/8. The “MIC Staphylococcus aureus” value in [3] (setting [20]) is recorded as 8/16. In series [4], the MIC Staphylococcus epidermidis amounted to 8 µg/mL. For the same substance, the “Escherichia coli ATP (viability, relative value to negative control)” value in series [5] amounted to 1.7. The “Pseudomonas aeruginosa ATP (viability, relative value to negative control)” value in series [6] was determined as 1.5. In [7], the “Staphylococcus aureus ATP (viability, relative value to negative control)” value is given as 2.0. In series [8], this substance had an MIC Micrococcus luteus of 1 µg/mL. This substance came in with an MIC Bacillus subtilis in series [9] of 2 µg/mL. Besides, the MIC Salmonella Enteritidis in [10] came out at 2 µg/mL. Also, in series [11] (setting [20]), the “MIC Salmonella Typhimurium” value is given as 4/2. The same substance came in with an MIC Streptococcus pyogenes in [12] of 16 µg/mL. The substance also yielded an MIC Acinetobacter baumanni in series [13] of 32 µg/mL. For the same substance, the “MIC Bacteroides fragilis” value in series [14] (setting [20]) was 64/32. The “MIC Fusobacterium nucleatum” value in series [15] (setting [20]) is given as 32/16. This substance registered an MIC Actinobacillus actinomycetemcomitans in series [16] of 64 µg/mL. Also, in the series with Fusarium solani JCM11383, the MIC Fusarium solani turned out to be 8 µg/mL. Also, the MIC Alternaria alternata in series [17] (JCM5800) is 32 µg/mL. The substance further came in with an MIC Trichophyton mentagrophytes in series [18] of 16 µg/mL. In series [19], this substance came in with an MIC Trichophyton rubrum of 32 µg/mL. Moreover, the “MIC Candida krusei” value against Candida krusei NBRC1395 (setting [20]) is given as 32/16.

These data come from US8470765B2, “Polypeptides and antibacterial or antiseptic use of same” (AnGes MG, Inc., priority 2009, dated 2013).
